# Test results from patent US20120088808A1, “CRYSTAL FORMS OF SAXAGLIPTIN” (SANDOZ AG, priority 2009, published 2012).
# Structures can show the parent of a compound that is named as a salt.
# What was measured:
# Type in all cases: physicochemical
# [1] = Stability of the crystal form against relative humidity (polymorphic transformation); conditions: for relative humidity above which the form transforms to known Dihydrate H2-1: transformation not reversible, hydrochloride
# Description: Infrared spectra (IR) were collected on a MKII Golden Gate™ Single Reflection Diamond ATR (attenuated total reflection) cell with a Bruker Tensor 27 FTIR spectrometer with 4 cm^−1 resolution. To collect a spectrum a spatula tip of a sample was applied to the surface of the diamond in powder form. Then the sample was pressed onto the diamond with a sapphire anvil and the spectrum was recorded. A spectrum of the clean diamond was used as background spectrum. A typical precision of the wavenumber values is in the range of about ±2 cm^−1. Thus, an infrared peak that appears at 1716 cm^−1 can appear between 1714 and 1718 cm^−1 on most infrared spectrometers under standard conditions. A sample was stored at 45-49% relative humidity for 12 hours.
# [2] = Water content by the Karl Fischer method
# Description: The water content is determined according to the Karl Fischer method.
# [3] = Thermogravimetric analysis (mass / water loss)
# Description: Thermogravimetric analysis was performed with the thermogravimetric system TGA-7 using the Pyris Software for Windows NT (Perkin-Elmer, Norwalk, Conn., USA), 50 μl platinum pans, nitrogen purge gas (sample purge: 20 ml min^−1, balance purge: 40 ml min^−1).
# [4] = Moisture sorption isotherm / water content at defined relative humidity, 25° C.
# Description: The moisture sorption isotherm was recorded with a SPS-11 moisture sorption analyzer (MD Mess-technik, Ulm, D). The measurement cycle was started at 0% relative humidity (RH), increased in 10% steps up to 90% RH and in a 5% step up to 95% RH. The equilibrium condition for each step was set to a constant mass ±0.003% over 49 min. The temperature was 25±0.1° C.
# [5] = at 40% relative humidity at 25° C.
smiles,measurement,setting,value
"N#C[C@@H]1C[C@@H]2CC2N1C(=O)[C@@H](N)C12CC3CC(CC(O)(C3)C1)C2 (stereo partly drawn) [form HT-IV S, Saxagliptin hydrochloride]",change in the crystal form (FTIR),[1]; after storage at 45-49% relative humidity for 12 hours,No change in the crystal form
same,Water (KF),"[2]; after drying in vacuum oven at 50° C. about 10 hours, then about 80° C. for 5 hours",0.7%
same,Water (KF),[2]; sample stored at 45-49% relative humidity for 12 hours,1.2%
"N#C[C@@H]1C[C@@H]2CC2N1C(=O)[C@@H](N)C12CC3CC(CC(O)(C3)C1)C2 (stereo partly drawn) [form HT-S, Saxagliptin hydrochloride]",water loss based on thermogravimetric analysis,[3]; FIG. 6,not more than 0.5 % w/w
"N#C[C@@H]1C[C@@H]2CC2N1C(=O)[C@@H](N)C12CC3CC(CC(O)(C3)C1)C2 (stereo partly drawn) [form I-S, Saxagliptin hydrochloride]",water content,"[4]; at about 50% relative humidity at 25° C., reversible",about 1.5%
same,fate of the water when lowering the relative humidity,"[4]; relative humidity at 25° C. lowered to about 0.5%, reversible on exposure to about 50% humidity",lost completely
same,relative humidity at which the form is stable,[1],below 50 % relative humidity
same,relative humidity above which the form transforms to known Dihydrate H2-1,[1]; listed as Form I-S,Above 50 % relative humidity
same,water content (Karl Fischer apparatus),[2]; crystalline form as obtained in example 1,1.2 % w/w
"N#C[C@@H]1C[C@@H]2CC2N1C(=O)[C@@H](N)C12CC3CC(CC(O)(C3)C1)C2 (stereo partly drawn) [form IV-S, Saxagliptin hydrochloride]",water content (moisture sorption analysis),"[4]; at 0% relative humidity, process reversible",12.8%
same,water content (moisture sorption analysis),[4]; [5],13.1%
same,water corresponding to the water content,[4]; [5],2.94 mol of water
same,water corresponding to the TGA mass loss,[3]; up to 100° C.,2.86 mol of water
same,mass loss by thermogravimetric analysis,"[3]; up to 100° C., FIG. 11",about 12.8%
same,relative humidity above which the form transforms to known Dihydrate H2-1,[1],above 40 % relative humidity
